{"source": "ChEMBL document CHEMBL1201862", "about": "“PubChem BioAssay data set” (2004)", "key": {"Phosphomannomutase 2": {"biological_target": "T1, Phosphomannomutase 2 (Homo sapiens, UniProt O15305)", "T1 sequence (O15305 whole entry)": "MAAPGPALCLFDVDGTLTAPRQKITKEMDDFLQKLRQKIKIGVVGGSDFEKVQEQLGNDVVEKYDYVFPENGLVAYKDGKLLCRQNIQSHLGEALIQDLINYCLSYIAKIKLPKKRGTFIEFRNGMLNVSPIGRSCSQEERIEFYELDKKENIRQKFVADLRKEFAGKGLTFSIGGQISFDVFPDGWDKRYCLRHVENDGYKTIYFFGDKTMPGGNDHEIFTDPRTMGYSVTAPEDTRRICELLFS", "test": "Counter screen SAR assay for PMM2 inhibitors via a fluorescence intensity assay. [Related pubchem assays (depositor defined):AID1545, AID1574]"}, "[1]": {"biological_target": "T2, Mannose-6-phosphate isomerase (Homo sapiens, UniProt P34949)", "T2 sequence (P34949 whole entry)": "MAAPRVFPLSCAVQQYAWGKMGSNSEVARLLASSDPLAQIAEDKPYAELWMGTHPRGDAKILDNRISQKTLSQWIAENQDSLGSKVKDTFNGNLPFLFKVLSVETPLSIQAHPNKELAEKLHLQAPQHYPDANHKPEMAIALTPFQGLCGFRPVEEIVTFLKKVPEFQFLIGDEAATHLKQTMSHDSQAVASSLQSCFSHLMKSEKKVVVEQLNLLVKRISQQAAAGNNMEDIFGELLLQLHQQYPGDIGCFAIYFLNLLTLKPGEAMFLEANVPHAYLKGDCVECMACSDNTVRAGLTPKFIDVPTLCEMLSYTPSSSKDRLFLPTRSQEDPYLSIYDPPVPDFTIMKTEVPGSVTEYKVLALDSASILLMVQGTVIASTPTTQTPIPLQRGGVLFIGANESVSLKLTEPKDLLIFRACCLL", "test": "PMI enzyme inhibitors, confirmation, biochemical, fluorescence intensity (AID 1535)"}, "[2]": {"biological_target": "T3, Ubiquitin-conjugating enzyme E2 N (Homo sapiens, UniProt P61088)", "T3 sequence (P61088 whole entry)": "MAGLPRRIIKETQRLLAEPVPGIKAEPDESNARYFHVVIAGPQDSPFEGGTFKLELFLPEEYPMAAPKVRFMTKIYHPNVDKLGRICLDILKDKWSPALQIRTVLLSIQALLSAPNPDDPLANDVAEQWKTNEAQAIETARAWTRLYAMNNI", "assay_type": "functional"}, "[3]": {"biological_target": "T3, Ubiquitin-conjugating enzyme E2 N", "assay_type": "functional", "remark": "listed apart in the source"}, "Bcl-2-related protein A1": {"biological_target": "T4, Bcl-2-related protein A1 (Mus musculus, UniProt Q07440)", "T4 sequence (Q07440 whole entry)": "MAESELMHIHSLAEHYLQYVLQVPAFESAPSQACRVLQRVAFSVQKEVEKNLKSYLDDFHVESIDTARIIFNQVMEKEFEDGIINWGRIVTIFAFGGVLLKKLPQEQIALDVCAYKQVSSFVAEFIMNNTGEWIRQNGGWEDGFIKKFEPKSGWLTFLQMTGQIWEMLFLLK", "assay_type": "functional"}, "[4]": {"biological_target": "T5, Replicative DNA helicase DnaB (Mycobacterium tuberculosis, UniProt P9WMR3)", "T5 sequence (P9WMR3 whole entry)": "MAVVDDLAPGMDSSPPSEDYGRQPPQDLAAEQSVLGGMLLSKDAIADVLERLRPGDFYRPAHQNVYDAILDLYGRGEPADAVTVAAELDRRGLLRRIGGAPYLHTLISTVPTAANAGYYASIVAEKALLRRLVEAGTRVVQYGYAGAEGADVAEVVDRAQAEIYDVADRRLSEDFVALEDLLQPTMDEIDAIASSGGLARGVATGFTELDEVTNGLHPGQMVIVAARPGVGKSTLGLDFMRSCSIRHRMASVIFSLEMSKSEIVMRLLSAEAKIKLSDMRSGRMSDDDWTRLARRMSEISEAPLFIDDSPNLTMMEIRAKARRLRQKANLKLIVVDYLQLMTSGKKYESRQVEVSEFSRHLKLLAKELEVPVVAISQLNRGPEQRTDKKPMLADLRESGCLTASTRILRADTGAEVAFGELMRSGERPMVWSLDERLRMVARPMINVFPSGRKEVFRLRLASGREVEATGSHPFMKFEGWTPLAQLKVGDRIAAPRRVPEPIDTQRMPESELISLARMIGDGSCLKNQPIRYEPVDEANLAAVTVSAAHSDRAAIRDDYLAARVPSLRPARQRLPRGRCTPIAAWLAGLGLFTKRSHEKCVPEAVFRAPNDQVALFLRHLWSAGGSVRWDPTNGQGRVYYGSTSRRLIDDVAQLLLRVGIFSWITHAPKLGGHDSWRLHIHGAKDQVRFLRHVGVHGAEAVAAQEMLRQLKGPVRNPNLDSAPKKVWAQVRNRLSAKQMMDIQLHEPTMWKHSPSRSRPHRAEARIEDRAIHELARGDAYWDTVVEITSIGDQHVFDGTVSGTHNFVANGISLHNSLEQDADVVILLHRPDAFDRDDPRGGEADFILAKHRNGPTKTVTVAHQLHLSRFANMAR", "test": "DnaB intein splicing inhibitors, dose response, biochemical, cell-free fluorescence (AID 449749)", "assay_type": "functional"}, "Protein RecA": {"biological_target": "T6, Protein RecA (Mycobacterium tuberculosis, UniProt P9WHJ3)", "T6 sequence (P9WHJ3 whole entry)": "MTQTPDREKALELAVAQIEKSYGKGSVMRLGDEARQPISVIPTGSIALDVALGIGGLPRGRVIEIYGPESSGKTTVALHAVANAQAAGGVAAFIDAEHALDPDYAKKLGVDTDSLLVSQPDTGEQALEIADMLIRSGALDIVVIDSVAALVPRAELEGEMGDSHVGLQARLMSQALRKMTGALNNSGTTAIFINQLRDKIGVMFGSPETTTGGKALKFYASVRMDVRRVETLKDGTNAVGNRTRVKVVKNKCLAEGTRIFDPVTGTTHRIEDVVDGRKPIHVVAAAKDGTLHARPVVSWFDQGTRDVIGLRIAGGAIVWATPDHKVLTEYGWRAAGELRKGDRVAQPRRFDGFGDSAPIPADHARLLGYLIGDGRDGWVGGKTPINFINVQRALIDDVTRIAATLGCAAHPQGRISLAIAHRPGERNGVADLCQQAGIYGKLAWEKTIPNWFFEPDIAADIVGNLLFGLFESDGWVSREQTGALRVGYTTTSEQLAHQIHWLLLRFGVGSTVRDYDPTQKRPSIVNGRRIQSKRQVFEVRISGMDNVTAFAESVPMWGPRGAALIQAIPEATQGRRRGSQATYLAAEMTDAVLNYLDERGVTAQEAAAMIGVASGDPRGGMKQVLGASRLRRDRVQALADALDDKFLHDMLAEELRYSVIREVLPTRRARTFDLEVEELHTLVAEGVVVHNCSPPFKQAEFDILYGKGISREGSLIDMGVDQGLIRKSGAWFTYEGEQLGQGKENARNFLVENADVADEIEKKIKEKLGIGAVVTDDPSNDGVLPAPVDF", "test": "Fluorescence Cell-Free Homogeneous Dose Retest to Identify Inhibitors of RecA-Intein Splicing Activity. [Related pubchem assays (depositor defined):AID2097, AID2223, AID489010, AID492950]", "assay_type": "functional"}, "[5]": {"test": "HEp-2 cell cytotoxicity, dose response, cytotoxicity control for RSV inhibitor project, HTS (AID 2410)", "assay_type": "functional", "conditions": "human respiratory syncytial virus"}, "[6]": {"biological_target": "G-protein coupled receptor 55 (Homo sapiens, UniProt Q9Y2T6)", "sequence (Q9Y2T6 whole entry)": "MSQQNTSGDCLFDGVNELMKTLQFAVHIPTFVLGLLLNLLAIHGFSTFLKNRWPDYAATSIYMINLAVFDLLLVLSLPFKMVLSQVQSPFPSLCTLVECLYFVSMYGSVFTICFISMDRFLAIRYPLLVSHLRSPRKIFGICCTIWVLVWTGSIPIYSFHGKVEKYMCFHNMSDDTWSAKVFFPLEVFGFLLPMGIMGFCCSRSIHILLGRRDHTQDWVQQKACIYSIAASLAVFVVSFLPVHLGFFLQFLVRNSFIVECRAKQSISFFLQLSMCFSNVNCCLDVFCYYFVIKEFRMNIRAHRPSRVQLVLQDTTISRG", "test": "GPR55 antagonists, SAR follow-up, counter-screen for GPR35 antagonist project, imaging, image-based (AID 2397)", "assay_type": "functional"}, "[7]": {"test": "control 3'UTR Renilla luciferase suppression, dose response, counter-screen for Shn3 inhibitor project, cell-based, Clone20-Shn3RL, cherry-picked (AID 624133)", "assay_type": "functional"}, "[8]": {"test": "Shn3 3'UTR reporter inhibitors, dose response, cell-based, Clone20 osteoblasts, firefly luciferase, cherry-picked (AID 624132);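 further: firefly luciferase luminescence from reporter carrying the Shn3 3'UTR in osteoblasts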", "assay_type": "functional"}, "[9]": {"biological_target": "T7, Polyadenylate-binding protein 1 (Homo sapiens, UniProt P11940)", "T7 sequence (P11940 whole entry)": "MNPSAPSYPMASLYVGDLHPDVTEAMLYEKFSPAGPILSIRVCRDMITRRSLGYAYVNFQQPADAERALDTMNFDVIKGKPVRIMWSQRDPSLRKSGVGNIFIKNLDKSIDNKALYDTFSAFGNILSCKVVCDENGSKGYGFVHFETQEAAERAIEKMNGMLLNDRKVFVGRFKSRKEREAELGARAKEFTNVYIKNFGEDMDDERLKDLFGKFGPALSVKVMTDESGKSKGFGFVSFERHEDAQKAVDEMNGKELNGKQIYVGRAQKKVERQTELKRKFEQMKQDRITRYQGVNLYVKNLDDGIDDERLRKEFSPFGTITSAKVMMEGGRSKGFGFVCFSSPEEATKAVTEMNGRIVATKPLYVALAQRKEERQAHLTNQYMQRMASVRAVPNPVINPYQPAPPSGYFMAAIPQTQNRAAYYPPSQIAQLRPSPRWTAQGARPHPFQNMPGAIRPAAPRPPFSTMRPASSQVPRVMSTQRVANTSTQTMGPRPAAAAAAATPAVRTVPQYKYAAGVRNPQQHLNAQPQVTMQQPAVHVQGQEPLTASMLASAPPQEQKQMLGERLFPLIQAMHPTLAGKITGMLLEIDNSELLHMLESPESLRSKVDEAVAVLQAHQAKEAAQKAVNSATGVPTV", "test": "PABP1 MLLE–PAM2 binding inhibitor potency, dose response, biochemical, fluorescence polarization, FITC-PAM2 peptide (AID 602259)", "assay_type": "functional", "conditions": "read-out: IC50_Mean"}, "HEK293 [10]": {"test_system": "HEK293", "test": "cells", "conditions": "Homo sapiens"}, "HEK293 [11]": {"test_system": "HEK293", "test": "cells", "conditions": "Homo sapiens", "remark": "listed apart in the source"}, "[12]": {"test": "HepG2 cell cytotoxicity, dose response, cytotoxicity control for Shn3 inhibitor project, CellTiter-Glo, cherry-picked (AID 624134)", "assay_type": "functional, cell-based"}, "[13]": {"biological_target": "T7, Polyadenylate-binding protein 1", "test": "PABP1 MLLE–PAM2 interaction inhibitors, dose response, miRNA deadenylation inhibitor project, biochemical, fluorescence polarization, Cy5-PAM2 peptide, secondary (AID 602260)", "assay_type": "functional", "conditions": "read-out: IC50_Mean"}}, "note": "Activity calls are given as the source filed them.", "data": [{"smiles": "Cc1ccc(NP(=O)(c2ccccc2)c2nc3ccccc3s2)cc1", "note": "(centres undefined)", "values": [{"measurement": "IC50", "setting": "Phosphomannomutase 2", "result": "> 100 µM (inactive)"}, {"measurement": "IC50", "setting": "[1]", "result": "> 50 µM (inactive)"}]}, {"smiles": "CCN1C(=O)c2cccc3c(NC(=O)c4ccc(S(=O)(=O)N5CCOCC5)cc4)ccc1c23", "values": [{"measurement": "IC50", "setting": "[2]", "result": "10.4 µM (active)"}, {"measurement": "IC50", "setting": "[3]", "result": "9.74 µM (active)"}, {"measurement": "IC50", "setting": "Bcl-2-related protein A1", "result": "> 20 µM (inactive)"}]}, {"smiles": "O=C(CCCN1C(=O)/C(=C\\c2cccs2)SC1=S)Nc1ccc(O)cc1", "values": [{"measurement": "AC50", "setting": "[4]", "result": "2.19 µM (active)"}, {"measurement": "EC50", "setting": "Protein RecA", "result": "5.95 µM (active)"}, {"measurement": "CC50", "setting": "[5]", "result": "12.5 µM (active)"}, {"measurement": "IC50", "setting": "[6]", "result": "29.5 µM (inactive)"}]}, {"smiles": "CCC(=O)NC(=S)NNC(=O)c1ccc(O)cc1", "values": [{"measurement": "IC50", "setting": "[2]", "result": "12.2 µM (active)"}, {"measurement": "IC50", "setting": "[3]", "result": "8.9 µM (active)"}, {"measurement": "IC50", "setting": "Bcl-2-related protein A1", "result": "> 20 µM (inactive)"}]}, {"smiles": "COc1ccc(OC)c(/C=C/C(=O)N2C(=O)c3cccc(N)c3C2=O)c1", "values": [{"measurement": "AC50", "setting": "[7]", "result": "26.6 µM (active)"}, {"measurement": "AC50", "setting": "[8]", "result": "3.25 µM (active)"}, {"measurement": "IC50", "setting": "[9]", "result": "> 66 µM (inactive)"}, {"measurement": "EC50", "setting": "HEK293 [10]", "result": "> 59.7 µM (inactive)"}, {"measurement": "EC50", "setting": "HEK293 [11]", "result": "> 59.7 µM (inactive)"}, {"measurement": "AC50", "setting": "[12]", "result": "58.5 µM (active)"}, {"measurement": "IC50", "setting": "[13]", "result": "> 66 µM (inactive)"}]}]}
